US7744920B2, “Use of liposomal glucocorticoids for treating inflammatory states” (Hadasit Medical Research Services & Development Limited, priority 2004, dated 2010)
Values joined by “and” are separate entries in the source; they are usually repeats but may differ in a detail not shown here. Equal entries are not always repeated. Values belong to the molecule of their own block, whether it stands above or below them.

Columns and labels:
[1] = Stability of liposomal formulation upon storage at 4° C. (gel exclusion chromatography); assay type: physicochemical; details: encapsulated in liposome, storage at 4° C. for 14 months
Experimental: The level of MPS released from SSL-MPS was determined by first separating the liposomes from free MPS using gel exclusion chromatography on Sepharose cross-linked CL-4B column using. Liposomes were eluted at the void volume and the free MPS at the later eluted fractions (FIG. 3A-3B). Stability upon storage at 4° C. and kinetic of release at 37° C. in 80% plasma was determined by gel exclusion chromatography described above. Then the different column fractions were analyzed as described above, for MPS, phospholipids and Ca in the void volume fraction.

[2] = test system: Adjuvant Arthritis (AA); test: Effect of SSL-MPS on AA at peak of disease; assay type: in vivo, Lewis rats; details: for AA score after the second injection at day 23: SSL-MPS and free-MPS 10 mg/kg BW on days 19, 23, Remicade 5 mg/kg on day 19; for clinical score immediately after the first injection: day 19, SSL-MPS and free-MPS 10 mg/kg BW, Remicade 5 mg/kg
[3] = cited from earlier work
[4] = liposomal formulation, after 24 hours, ex vivo; cited from earlier work
[5] = test system: Adjuvant Arthritis (AA); test: Treatment of Adjuvant Arthritis (AA), injections from day 10 after induction; assay type: in vivo, Lewis rats; details: 2 i.v. injections on days 10 and 14, 5 then 10 mg/kg BW (FIG. 7A)
[6] = Experimental: Surface tension was measured using μtrouge S (Kibron Inc., Helsinki Finland). A solution containing GC derivative (300 μL) was placed in the well after calibration and zeroing of the sensor using pure water and air. The measurement was performed at 26° C.
[7] = Partition coefficient (logD) by shake flask; assay type: physicochemical; details: FIG. 1B
Experimental: Partition coefficient (logD) of some GC derivatives (which are amphipathic weak acids) was determined by the ‘shake flask’ as described [Samuni, A. M. and Barenholz, Y., Free Radicals Biol. Med. 22:1165-1174 (1997)].

[8] = Loading efficiency of MPS into liposomes; assay type: physicochemical; details: HSPC:Chol:2000PEG-DSPE liposomes
Experimental: A stock solution of methylprednisolone hemisuccinate sodium salt (MPS, the GC derivative) was dissolved in 5% dextrose (pH 7.2) to a concentration of ˜9 mg/ml and added to the preformed SSL dispersion after the calcium acetate gradient was established. MPS concentration was ˜9 mg/ml and phospholipid ˜32 mM phosphate.
Loading was achieved by incubation of the components above for the desired time at 62° C. (above matrix lipid Tm). Liposomes were then cooled to 4° C. and dialyzed against 5% dextrose at 4° C. to remove acetate released during loading and to remove unloaded drug or alternatively unloaded drug was removed by the ion exchanger Dowex 1×400 mesh (Cl^− form).
Loading efficiency is the ratio between MPS/phospholipid concentrations after and before loading. The quantification of MPS was done in an HPLC apparatus as described by Anderson, and Taphouse 1981 [Anderson B. D. and Taphouse. V. J Pharm Sci, 70:181-6 (1981)], quantification of phospholipid was done by modified Bartlet procedure [Shmeeda, H., et al. In: Methods in Enzymology “Liposomes”, (Düzgünes, N., ed.), 367:272-292 (2003)].

[9] = Precipitation of MPS in calcium acetate solution; assay type: physicochemical; details: 600 mOsm Ca-acetate, 63° C, 5 mg/ml, 40 minutes
Experimental: To 600 mOsm Ca-acetate solution at 63° C and at different pH points MPS was added at final concentration of 5 mg/ml, then mixed solution was incubated for 40 minutes after which the solution was centrifuged and the supernatant was analyzed using […].

[10] = State of aggregation (turbidity) of MPS as function of pH; assay type: physicochemical
Experimental: Aggregation of MPS was determined from the change in turbidity measured as intensity of light scattered at 90° to excitation beam using a spectrofluormeter under conditions that MPS lack absorbance (excitation and emission at the same wavelength Ex=600 nm Em=600 nm). There is a large increase in the light scattered by MPS solution/dispersion due to formation of aggregates.
The intensity of scattered light (at 90° to the excitation), also defined as turbidity is proportional to concentration and to the size of the aggregates. [Zuidam, N. J. and Barenholz, Y., Biochim. Biophys. Acta 1368:115-128 (1998)]. The state of aggregation of MPS was tested in the following manner: To quartz cuvette MPS (2 ml) at concentration of ˜6.5mg/ml MPS was added. The solution was tittered with HCl (1.756 M) and light scattering using excitation and emission at (both at 600 nm with attenuation of 1%) and pH of the solution was monitored.

reduction in the GC derivative from initial concentration [1]: less than 20%
Molecule: C[C@H]1C[C@@H]2[C@H]([C@@H](O)C[C@@]3(C)[C@H]2CC[C@]3(O)C(=O)COC(=O)CCC(=O)O)[C@@]2(C)C=CC(=O)C=C12 [Methylprednisolone hemisuccinate]

Molecule: REMICADE: positive control, Remicade 5 mg/kg (on day 19)
AA score after the second injection at day 23 [2]: minimal decline
clinical score immediately after the first injection [2]: very slow decline

Molecule: triamcinolone acetonide phosphate
pKa [3]: below 2
acidic corticosteroid retained by the liposome [4]: more than 75%

CAC (critical association/aggregation concentration) ([6]; 26° C.): ~5 mM
partition coefficient at different pH points [7]: amphipathic substance
% Encapsulation ([8]; batch 04 May 2005, after dialysis): 93.2%
% Encapsulation ([8]; batch 06 Apr. 2005, after dialysis): 96.6%
% Encapsulation ([8]; batch 18 Jul. 2004, after dialysis): 99.1%
% MPS precipitated ([9]; pH 4.5): 97% and 96.6%
% MPS precipitated ([9]; pH 6.2): 42.8%
% MPS precipitated ([9]; pH 6.8): 44.1%
state of aggregation (turbidity) ([10]; acidic pH): aggregates
state of aggregation (turbidity) ([10]; pH 7.2): non-aggregated water soluble
Molecule: C[C@H]1C[C@@H]2[C@H]([C@@H](O)C[C@@]3(C)[C@H]2CC[C@]3(O)C(=O)COC(=O)CCC(=O)[O-])[C@@]2(C)C=CC(=O)C=C12.[Na+] [MPS, methylprednisolone sodium hemisuccinate]
AA score after the second injection at day 23 [2]: minimal decline
clinical score immediately after the first injection [2]: very slow decline
effect on AA [5]: neither the free MPS nor the empty liposome had any effect on AA
surface activity ([6]; concentrations 0.785-30 mM): surface active at all concentrations used
